# Reference: PubChem BioAssay (NCI)
#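 The compound was tested at five concentrations on cells cultured in 96-well plates, with a 48-hour exposure period. Abbreviation: GI50, concentration required for 50% inhibition of growth. At the TGI there is no net growth.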
# What was measured:
# Assay in all cases: DTP human tumour cell line panel, 48 h
# [1] = tested on: SK-MEL-5 melanoma
# [2] = tested on: ACHN renal
# [3] = tested on: NCI-H226 lung
# [4] = tested on: HL-60(TB) leukemia
# [5] = tested on: HT29 colon
# [6] = tested on: SK-MEL-28 melanoma
# [7] = tested on: 786-0 renal
# [8] = tested on: MDA-MB-435
# [9] = tested on: SF-295 CNS
# [10] = tested on: HOP-92 NSCLC
Compound,GI50 [1],TGI [1],GI50 [2],TGI [2],GI50 [3],TGI [3],GI50 [4],TGI [4],GI50 [5],TGI [5],GI50 [6],TGI [6],GI50 [7],TGI [7],GI50 [8],TGI [8],GI50 [9],TGI [9],GI50 [10],TGI [10]
ClCc1ccc(-c2ccc(Cn3cnc4c(Cl)nc(Cl)nc43)cc2)cc1,2.75 µM,12.3 µM,2.05 µM,4.25 µM,8.85 µM,28.5 µM,3.25 µM,> 100 µM,1.72 µM,3.31 µM,1.65 µM,3.1 µM,6.43 µM,19.6 µM,2.74 µM,9.37 µM,2.69 µM,6.5 µM,1.98 µM,5.56 µM
COc1cc(/C=C2\CN(C)C/C(=C\c3cc(OC)c(OC)c(OC)c3)C2=O)cc(OC)c1OC,0.204 µM,0.434 µM,0.2 µM,0.387 µM,0.239 µM,0.588 µM,0.34 µM,1.67 µM,0.214 µM,0.505 µM,0.2 µM,0.429 µM,0.27 µM,–,0.287 µM,1.02 µM,0.319 µM,1.12 µM,0.774 µM,2.8 µM
NC(CNO)C(=O)O (stereo not given),–,> 100 µM,–,> 100 µM,–,> 100 µM,–,21.7 µM,–,> 100 µM,–,> 100 µM,–,> 100 µM,–,> 100 µM,–,> 100 µM,–,> 100 µM
CCOC(=O)c1ccc(N(CCOS(C)(=O)=O)CCOS(C)(=O)=O)cc1C,35.9 µM,> 100 µM,9.94 µM,42.7 µM,–,–,8.08 µM,51.2 µM,26.3 µM,> 100 µM,> 100 µM,> 100 µM,16.7 µM,42.2 µM,48.5 µM,> 100 µM,21.9 µM,> 100 µM,36.7 µM,> 100 µM
CN[C@]12CC3(C=CC(=O)C=C3)O[C@@]1(Cc1ccc(OC)cc1)N(C)C(=O)N2,1.65 µM,3.15 µM,1.67 µM,4 µM,3.46 µM,15.9 µM,1.84 µM,6.49 µM,1.63 µM,6.28 µM,2.53 µM,6.75 µM,2.03 µM,4.12 µM,2.57 µM,8.64 µM,3.74 µM,13.6 µM,2.15 µM,4.73 µM
Cn1ncc2c(/N=C/c3cccs3)[nH]c(=S)nc21,17.9 µM,39.9 µM,37.6 µM,> 80 µM,10.5 µM,40.9 µM,43.6 µM,> 100 µM,52.3 µM,> 100 µM,56.5 µM,> 100 µM,60.1 µM,> 100 µM,29.9 µM,> 72.2 µM,41.1 µM,> 83.3 µM,61.2 µM,> 100 µM
COC(=O)C(C)NP(=O)(OCc1ccc(Cn2cnc3c(=O)[nH]c(N)nc32)cc1)Oc1ccccc1 (stereo not given),> 100 µM,> 100 µM,> 100 µM,> 100 µM,> 100 µM,> 100 µM,> 100 µM,> 100 µM,> 100 µM,> 100 µM,> 100 µM,> 100 µM,> 100 µM,> 100 µM,> 100 µM,> 100 µM,> 100 µM,> 100 µM,> 100 µM,> 100 µM
COc1cc(/C=C/C(=O)c2ccc(Nc3ncnc4ccccc34)cc2)cc(OC)c1,–,–,13.9 µM,63.9 µM,2.45 µM,8.91 µM,3.74 µM,30.4 µM,2.07 µM,4.05 µM,15.4 µM,34.4 µM,4.2 µM,14.5 µM,1.8 µM,4.14 µM,4.31 µM,29.2 µM,1.32 µM,52.7 µM
CCOC(=O)c1c(-c2ccccc2)[n+](=O)c2ccc(Cl)cc2n1[O-],1.63 µM,3.33 µM,2.93 µM,11.3 µM,5.2 µM,17.4 µM,5.66 µM,20.3 µM,11 µM,23 µM,18 µM,52.7 µM,6.98 µM,19.9 µM,10.2 µM,26.4 µM,4.87 µM,19.1 µM,1.93 µM,4.91 µM
COc1ccc2c(c1)CCc1c(-c3noc4c3CCc3cc(OC)ccc3-4)noc1-2,–,> 100 µM,–,> 100 µM,–,> 100 µM,–,> 100 µM,–,> 100 µM,–,> 100 µM,–,> 100 µM,–,> 100 µM,–,> 100 µM,–,> 100 µM
C=C1C(=O)O[C@H]2[C@H]1CC/C(COC(=O)CCCCCCCCC(=O)OC/C1=C/CC[C@@]3(C)O[C@H]3[C@H]3OC(=O)C(=C)[C@@H]3CC1)=C\CC[C@@]1(C)O[C@@H]21,1.91 µM,3.48 µM,1.8 µM,3.55 µM,2.75 µM,7.24 µM,2.05 µM,8.26 µM,2.08 µM,4.12 µM,2.34 µM,6.04 µM,1.75 µM,3.41 µM,2.02 µM,4.59 µM,2.56 µM,8.09 µM,1.94 µM,4.38 µM
Nc1ncnc2c1nc(-c1ccccc1)n2C1OC(CO)C(O)C1O (stereo not given),–,> 100 µM,–,> 100 µM,–,> 100 µM,–,> 100 µM,–,> 100 µM,–,> 100 µM,–,> 100 µM,–,> 100 µM,–,> 100 µM,–,> 100 µM
COc1cc(C#N)cc(OC)c1OCCOCCOc1c(OC)cc(C#N)cc1OC,69.8 µM,> 100 µM,> 100 µM,> 100 µM,81.2 µM,> 100 µM,19 µM,85.7 µM,> 100 µM,> 100 µM,> 100 µM,> 100 µM,> 100 µM,> 100 µM,> 100 µM,> 100 µM,84.9 µM,> 100 µM,10.3 µM,78.4 µM
CN1CCC[C@@H]1CCO[C@](C)(c1ccccc1)c1ccc(Cl)cc1,1.54 µM,2.89 µM,6.31 µM,19 µM,10.5 µM,25.3 µM,4.03 µM,18 µM,3.06 µM,11.3 µM,2 µM,4.36 µM,5.88 µM,19.7 µM,2.46 µM,8.19 µM,2.32 µM,6.43 µM,1.8 µM,8.37 µM
